In publication PMC7994567, “Characterization of a novel sn1,3 lipase from Ricinus communis L. suitable for production of oleic acid-palmitic acid-glycerol oleate” (Scientific Reports, 2021) one finds Km data, which are given here for two compounds.

The term Km denotes the substrate concentration at which the rate is half of its maximum.

This assay relates to T1, RcLipase.
T1 construct: catalytic Ser146, Asp211, His276; oxyanion Thr63, Leu147
Description: hydrolysis kinetics, Michaelis-Menten non-linear regression. It is filed as biochemical, Ricinus communis. Particulars: 20 mM Tris-HCl pH 8.0, 40 °C; substrate 0-1 mM.

Take `CCCCCCCC/C=C\CCCCCCCC(=O)OCC(COC(=O)CCCCCCC/C=C\CCCCCCCC)OC(=O)CCCCCCC/C=C\CCCCCCCC` [Triolein]: the Km is 210 ± 10 µM.

Consider `CCCCCCCCCCCCCCCC(=O)OCC(COC(=O)CCCCCCCCCCCCCCC)OC(=O)CCCCCCCCCCCCCCC` [Tripalmitin], for which the Km is 170 ± 10 µM.
